According to publication PMC8247405 (British Journal of Clinical Pharmacology, 2020):

Legend:
patients = conditions: in vivo; cited from earlier work
[1] = system: renal transplant recipients; conditions: in vivo, cited from earlier work
type‐2 diabetes patients [2] = conditions: human, in vivo; cited from earlier work
type‐2 diabetes patients [3] = system: type‐2 diabetes patients; design: species or system human; conditions: in vivo
type‐2 diabetes patients [4] = conditions: human, in vivo
type‐2 diabetes patients [5] = conditions: human, in vivo; remark: listed apart in the source
type‐2 diabetes patients [6] = conditions: human, in vivo; remark: listed apart in the source

## CCOC(=O)N1c2ccc(C(F)(F)F)cc2[C@@H](N(Cc2cc(C(F)(F)F)cc(C(F)(F)F)c2)C(=O)OC)C[C@H]1CC [torcetrapib]
patients
  effect on FMD: pharmacological decrease in FMD

## CCCCCCCCc1ccc(CCC(N)(CO)CO)cc1 [fingolimod]
[1]; 2.5 mg
  effect on creatinine clearance: creatinine clearance impairment
[1]
  lymphocyte reduction: 70–80%

## CCCc1nn(C)c2c(=O)[nH]c(-c3cc(S(=O)(=O)N4CCN(C)CC4)ccc3OCC)nc12 [sildenafil]
type‐2 diabetes patients [2]
  FMD increase from baseline compared to placebo: ≥ 3%
  FMD increases from baseline: 5–6%
  effect on FMD: failed to improve FMD
type‐2 diabetes patients [3]
  FMD change versus placebo Mean estimate [95% CI]: 0.88%
  FMD with treatment: about 5%
type‐2 diabetes patients [4]
  heart rate change: no change
  mean heart rate increase: 3–6 beats/min
type‐2 diabetes patients [5]
  vasodilatory effect (blood pressure, BAD): no blood pressure‐lowering or BAD increase
type‐2 diabetes patients [6]
  Patients with TEAE: Any class: 5 (41.7%) n (%)
  Patients with TEAE: Arthropod sting: 0 n (%)
  Patients with TEAE: Back pain: 1 (8.3%) n (%)
  Patients with TEAE: Cardiac disorders: 1 (8.3%) n (%)
  Patients with TEAE: Contusion: 0 n (%)
  Patients with TEAE: Cough: 0 n (%)
  Patients with TEAE: Diarrhoea: 2 (16.7%) n (%)
  Patients with TEAE: Dyspepsia: 1 (8.3%) n (%)
  Patients with TEAE: Epistaxis: 0 n (%)
  Patients with TEAE: Erythema: 2 (16.7%) n (%)
  Patients with TEAE: Gastroesophageal reflux disease: 1 (8.3%) n (%)
  Patients with TEAE: Gastrointestinal disorders: 3 (25.0%) n (%)
  Patients with TEAE: General disorders and administration site conditions: 0 n (%)
  Patients with TEAE: Headache: 2 (16.7%) n (%)
  Patients with TEAE: Infections and infestations: 1 (8.3%) n (%)
  Patients with TEAE: Injury, poisoning and procedural complications: 0 n (%)
  Patients with TEAE: Leading to treatment discontinuation: 1 (8.3%) n (%)
  Patients with TEAE: Musculoskeletal and connective tissue disorders: 1 (8.3%) n (%)
  Patients with TEAE: Musculoskeletal pain: 0 n (%)
  Patients with TEAE: Nasopharyngitis: 1 (8.3%) n (%)
  Patients with TEAE: Nausea: 0 n (%)
  Patients with TEAE: Neck pain: 0 n (%)
  Patients with TEAE: Nervous system disorders: 2 (16.7%) n (%)
  Patients with TEAE: Obstructive airways disorder: 0 n (%)
  Patients with TEAE: Oropharyngeal pain: 1 (8.3%) n (%)
  Patients with TEAE: Orthostatic intolerance: 0 n (%)
  Patients with TEAE: Otitis externa: 0 n (%)
  Patients with TEAE: Palpitations: 0 n (%)
  Patients with TEAE: Pruritus: 0 n (%)
  Patients with TEAE: Respiratory, thoracic and mediastinal disorders: 1 (8.3%) n (%)
  Patients with TEAE: Severe AE: 0 n (%)
  Patients with TEAE: Skin abrasion: 0 n (%)
  Patients with TEAE: Skin and subcutaneous tissue disorders: 2 (16.7%) n (%)
  Patients with TEAE: Traumatic haematoma: 0 n (%)
  Patients with TEAE: Ventricular extrasystoles: 1 (8.3%) n (%)
  Patients with TEAE: Vessel puncture site haematoma: 0 n (%)
  Patients with TEAE: Vomiting: 0 n (%)

## CCC(CC)CC1(C(=O)Nc2ccccc2SC(=O)C(C)C)CCCCC1 [dalcetrapib]
patients
  effect on FMD and CV events: neutral on both FMD and CV events
